≈ marks a conversion by molar mass, not a printed value. Where “and” joins values, the source holds several entries; their conditions need not be identical. Equal values may be shown once. Read-outs that look alike come from different tables or passages of the source.
Columns and labels:
[1] = tested on: formaldehyde-induced rat paw oedema; assay: Formaldehyde-induced rat paw oedema (prophylactic); assay type: in vivo; conditions: for paw volume reduced compared to positive control: 25 mg/kg orally
trypsin = assay: Proteinase-inhibitory activity; assay type: biochemical; conditions: 250 µg/mL; mean ± SD (n = 3)
Summary of the method: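 Trypsin (0.06 mg per 2 mL, 20 mM Tris-HCl pH 7.4) was preincubated 5 min with test sample at 250 µg/mL, then 0.8% casein was added for 20 min. Perchloric acid stopped the reaction and supernatant absorbance was read at 280 nm. % inhibition is relative to the no-sample control, in triplicate.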

[2] = tested on: Bacillus megaterium ATCC 9885; assay: Agar well diffusion, B. megaterium; assay type: cell-based; conditions: Priestia megaterium, ATCC9885, 100 μL of 10 mg/mL in DMSO, read-out: diameter of inhibition zone, BM
Summary of the method: (§1)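 Values are mean inhibition zone diameters (mm) from triplicate plates incubated 24 h at 37 °C. Wells 10 mm wide held 100 μL of compound at 10 mg/mL in DMSO.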

[3] = tested on: Pseudomonas aeruginosa ATCC 27,953; assay: Agar well diffusion, P. aeruginosa; assay type: cell-based; conditions: ATCC27, 100 μL of 10 mg/mL in DMSO, read-out: diameter of inhibition zone, PA
Summary of the method: as §1

[4] = tested on: Bacillus subtilis ATCC 6633; assay: Agar well diffusion, B. subtilis; assay type: cell-based; conditions: ATCC6633, 100 μL of 10 mg/mL in DMSO, read-out: diameter of inhibition zone, BS
Summary of the method: as §1

[5] = tested on: Escherichia coli ATCC 2592; assay: Agar well diffusion, E. coli; assay type: cell-based; conditions: ATCC2592, 100 μL of 10 mg/mL in DMSO, read-out: diameter of inhibition zone, EC
Summary of the method: as §1

[6] = tested on: Saccharomyces cerevisiae local isolate; assay: Agar well diffusion, S. cerevisiae; assay type: cell-based; conditions: read-out: diameter of inhibition zone, SC
Summary of the method: as §1

COX-2 = target: T1, COX-2 (Homo sapiens, UniProt P35354); assay: COX-2 inhibition, Cayman assay kit; assay type: biochemical; conditions: for IC50: mean of two determinations; for SI, selectivity index (COX-1/COX-2): ratio of COX-1/COX-2 IC50
T1 construct: purchased Cayman Chemical 701080
T1 sequence (P35354 18-604): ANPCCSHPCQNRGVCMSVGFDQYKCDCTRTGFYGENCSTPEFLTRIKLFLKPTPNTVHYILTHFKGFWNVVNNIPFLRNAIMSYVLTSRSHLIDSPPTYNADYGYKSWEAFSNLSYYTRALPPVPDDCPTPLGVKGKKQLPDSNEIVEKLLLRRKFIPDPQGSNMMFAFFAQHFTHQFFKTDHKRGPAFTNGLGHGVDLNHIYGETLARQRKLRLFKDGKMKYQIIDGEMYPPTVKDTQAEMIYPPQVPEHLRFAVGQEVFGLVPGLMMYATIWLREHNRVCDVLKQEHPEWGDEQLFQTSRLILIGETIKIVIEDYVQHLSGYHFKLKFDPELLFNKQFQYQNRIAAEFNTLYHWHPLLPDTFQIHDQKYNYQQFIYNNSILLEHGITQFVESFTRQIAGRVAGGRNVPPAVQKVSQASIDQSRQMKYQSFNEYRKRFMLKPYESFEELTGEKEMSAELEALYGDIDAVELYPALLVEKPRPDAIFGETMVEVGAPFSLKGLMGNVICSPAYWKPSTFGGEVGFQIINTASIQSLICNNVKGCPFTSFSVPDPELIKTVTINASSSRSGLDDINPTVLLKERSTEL

COX-1 = target: T2, COX-1 (Homo sapiens, UniProt P23219); assay: COX-1 inhibition, Cayman assay kit; assay type: biochemical; conditions: mean of two determinations
T2 construct: purchased Cayman Chemical 701070

[7] = tested on: Candida albicans NRRL Y-477; assay: Agar well diffusion, C. albicans; assay type: cell-based; conditions: NRRLY477, 100 μL of 10 mg/mL in DMSO, read-out: diameter of inhibition zone, CA
Summary of the method: as §1

[8] = DPPH antioxidant assay (radical scavenging); assay type: biochemical; conditions: mean ± SD (n = 3)
Summary of the method: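 Compounds, starting at 200 μg/mL, were mixed with 0.2 mM methanolic DPPH and incubated 30 min in the dark at 25 °C; absorbance was read at 515 nm. % inhibition is background-corrected against DPPH-only control, with IC50 from curve fit. Runs were triplicate (mean ± SD), with ascorbic acid as positive control.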

tested microorganisms [9] = assay: Agar well diffusion, summary over the tested microorganisms; assay type: cell-based; conditions: all tested microorganisms
Text: (§2) The new molecules were individually tested for their antimicrobial activity in vitro against standard bacteria strains from the American Type Culture Collection (ATCC), namely, Staphylococcus aureus ATCC 29213, Bacillus subtilis ATCC 6633, Bacillus megaterium ATCC 9885 (Gram-positive), Escherichia coli ATCC 2592, and Pseudomonas aeruginosa ATCC 27,953 (Gram-negative). The compounds were also microbiologically tested against locally isolated Saccharomyces cerevisiae (yeast) and the standard Agricultural Research Service Culture Collection (NRRL) strain of the yeast-like pathogenic fungus Candida albicans NRRL Y-477. Primary screening was conducted using the agar well diffusion method using nutrient agar (NA) medium and Sabourand dextrose agar (SDA) medium for the tested pathological bacteria and yeast, respectively. […].
Antimicrobial tests were conducted via the agar well diffusion method using 100 μL of suspension containing 1 × 10^8 CFU/mL pathological tested bacteria and 1 × 10^6 CFU/mL yeast spread on NA and SDA, respectively. […] After incubation, antimicrobial activity was evaluated by measuring the zone of inhibition against the test organisms and compared with that of the standard. Antimicrobial activities were expressed as the diameter of the inhibition zone (IZ) in mm. The experiment was carried out in triplicate and the average zone of inhibition was calculated.

[10] = tested on: Staphylococcus aureus ATCC 29213; assay: Agar well diffusion, S. aureus; assay type: cell-based; conditions: ATCC29213, 100 μL of 10 mg/mL in DMSO, read-out: diameter of inhibition zone, SA
Summary of the method: as §1

[11] = tested on: Bacillus subtilis ATCC 6633; assay: MIC, two-fold serial dilution, B. subtilis; assay type: cell-based; conditions: ATCC6633, read-out: Minimum inhibitory concentration, BS
Text: as §2
(§3) The bacteriostatic activity of the active compounds (having IZ > 16 mm) was then evaluated using the two-fold serial dilution technique. Two-fold serial dilutions of the tested compounds solutions were prepared using the proper nutrient broth to reach final concentrations of 1000, 500, 250, and 125 μg/mL. The tubes were then inoculated with the test microorganisms grown in their suitable broth at 37 °C for 24 h (1 × 10^8 CFU/mL for bacteria and 1 × 10^6 CFU/mL of yeast), 0.1 mL of the above inoculum was administered per 5 mL, and the tubes were incubated at 37 °C for 24 h. The lowest concentration showing no growth was taken as the MIC.

[12] = tested on: Bacillus megaterium ATCC 9885; assay: MIC, two-fold serial dilution, B. megaterium; assay type: cell-based; conditions: Priestia megaterium, ATCC9885, read-out: Minimum inhibitory concentration, BM
Text: as §2, §3

[13] = tested on: Escherichia coli ATCC 2592; assay: MIC, two-fold serial dilution, E. coli; assay type: cell-based; conditions: ATCC2592, read-out: Minimum inhibitory concentration, EC
Text: as §2, §3

tested microorganisms [14] = assay: MIC, summary over the tested microorganisms; assay type: cell-based; conditions: two-fold serial dilution; read-out: MIC against most tested microorganisms
Text: as §2, §3

[15] = tested on: Pseudomonas aeruginosa ATCC 27,953; assay: MIC, two-fold serial dilution, P. aeruginosa; assay type: cell-based; conditions: ATCC27, read-out: Minimum inhibitory concentration, PA
Text: as §2, §3

[16] = tested on: Saccharomyces cerevisiae local isolate; assay: MIC, two-fold serial dilution, S. cerevisiae; assay type: cell-based; conditions: read-out: Minimum inhibitory concentration, SC
Summary of the method: (§4)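 Compounds with agar-well inhibition zones >16 mm were retested by two-fold broth dilution at final concentrations of 1000, 500, 250 and 125 μg/mL. Inocula of 1 × 10^8 CFU/mL (bacteria) or 1 × 10^6 CFU/mL (yeast), 0.1 mL per 5 mL. MIC = lowest concentration without growth after 24 h at 37 °C.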

[17] = tested on: Staphylococcus aureus ATCC 29213; assay: MIC, two-fold serial dilution, S. aureus; assay type: cell-based; conditions: ATCC29213, read-out: Minimum inhibitory concentration, SA
Text: as §2, §3

[18] = tested on: Candida albicans NRRL Y-477; assay: MIC, two-fold serial dilution, C. albicans; assay type: cell-based; conditions: NRRLY477, read-out: Minimum inhibitory concentration, CA
Summary of the method: as §4

T2 sequence (P23219 24-599): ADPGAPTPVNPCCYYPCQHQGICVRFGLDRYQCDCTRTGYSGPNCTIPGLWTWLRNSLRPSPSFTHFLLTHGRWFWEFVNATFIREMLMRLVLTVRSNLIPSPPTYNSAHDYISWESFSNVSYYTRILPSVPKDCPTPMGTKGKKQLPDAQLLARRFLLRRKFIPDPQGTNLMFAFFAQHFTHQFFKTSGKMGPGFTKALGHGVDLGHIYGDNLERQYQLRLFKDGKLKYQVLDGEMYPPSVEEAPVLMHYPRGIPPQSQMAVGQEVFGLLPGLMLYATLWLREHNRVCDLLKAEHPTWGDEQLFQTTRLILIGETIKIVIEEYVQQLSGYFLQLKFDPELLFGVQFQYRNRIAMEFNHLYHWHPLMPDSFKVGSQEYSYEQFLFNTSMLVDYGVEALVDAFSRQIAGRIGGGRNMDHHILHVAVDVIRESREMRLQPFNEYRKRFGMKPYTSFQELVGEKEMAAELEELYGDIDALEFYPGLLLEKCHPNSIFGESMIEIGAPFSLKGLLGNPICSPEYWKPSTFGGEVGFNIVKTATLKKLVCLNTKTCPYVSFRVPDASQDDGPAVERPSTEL

Row | Structure (SMILES) | % Inhibition (proteinase) (trypsin) [%] | zone of inhibition at 10000 µg/mL [2] [mm] | zone of inhibition at 10000 µg/mL [3] [mm] | melting point [°C] | zone of inhibition at 10000 µg/mL [4] [mm] | zone of inhibition at 10000 µg/mL [5] [mm] | IC50 (COX-2) [µM] | SI, selectivity index (COX-1/COX-2) (COX-2) | IC50 (COX-1) [µM] | zone of inhibition at 10000 µg/mL [7] [mm] | IC50 [8] | zone of inhibition at 10000 µg/mL [10] [mm] | MIC [11] [µg/mL] | zone of inhibition at 10000 µg/mL [6] [mm] | other results
1 | COc1ccc2c(c1)c(CC(=O)O)c(C)n2C(=O)c1ccc(Cl)cc1 [Indomethacin, reference compound] |  |  |  |  |  |  |  |  |  |  |  |  |  |  | paw volume reduced compared to positive control ([1]; 1 h after formaldehyde): 72.09%; paw volume reduced compared to positive control ([1]; 2 h after formaldehyde): 74.79%; paw volume reduced compared to positive control ([1]; 3 h after formaldehyde): 71.5%
2 | Cc1ccc2oc(=O)c(S(=O)(=O)Nc3ccc(S(N)(=O)=O)cc3)c(O)c2c1 [7b, 4-Hydroxy-6-methyl-2-oxo-N-(4-sulfamoylphenyl)-2H-chromene-3-sulfonamide] | 5.93 ± 2.11 | < 15 | < 15 | 241 to 243 | < 15 | < 15 | 8.24 | 5.78 | 47.6 | < 15 | 61.78 ± 2.719 µg/mL (≈ 151 µM) | < 15 |  |  | zone of inhibition at 10000 µg/mL ([6]; well diffusion, 100 μL of 10 mg/mL in DMSO, S. cerevisiae): < 15 mm; IZ against the tested microorganisms (tested microorganisms [9]): < 15 mm
3 | Cc1ccc2oc(=O)c3c(c2c1)OC(/N=C/c1ccccc1)=C(C#N)C3c1ccc([N+](=O)[O-])cc1 (racemic) [5a, (±)-2-(benzylideneamino)-9-methyl-4-(4-nitrophenyl)-5-oxo-4H,5H-pyrano[3,2-c]chromene-3-carbonitrile] |  | 22 | 24 | 208 to 209 | 27 | 26 | 7.41 | 152 and 152.02 | 1130 | 25 | — ((—): inactive (IC50 > 200 μg/mL)) | 25 | 250 (≈ 539 µM) | 26 | MIC [12]: 500 µg/mL (≈ 1080 µM); MIC [13]: 250 µg/mL (≈ 539 µM); MIC (tested microorganisms [14]): 250 to 500 µg/mL (≈ 539 to 1080 µM); MIC [15]: 500 µg/mL (≈ 1080 µM); MIC [16]: 500 µg/mL (≈ 1080 µM); MIC [17]: 250 µg/mL (≈ 539 µM); MIC [18]: 500 µg/mL (≈ 1080 µM)
4 | Cc1ccc2oc(=O)c3c(c2c1)OC(N)=C(C(N)=O)C3c1ccc([N+](=O)[O-])cc1 (racemic) [3a, (±)-2-Amino-9-methyl-4-(4-nitrophenyl)-5-oxo-4H,5H-pyrano[3,2-c]chromene-3-carboxamide] | 79.72 ± 4.51 | 16 | 15 | 142 to 144 | 18 | 16 | 9.81 | 18.68 | 183 | < 15 | — ((—): inactive (IC50 > 200 μg/mL)) | < 15 | 1000 (≈ 2540 µM) | < 15 | % inhibition of paw oedema ([1]; 2.5 mg/kg orally, 1 h after inducing inflammation): 29.2%
